The subject of assay [1] is Barnase/IP:Barstar (ID06) transgenic Arabidopsis plants. As to the kind of experiment: Restoration of flowering in Barnase/IP:Barstar (ID06) transgenic plants by ligand spray. The class given is in vivo. Particulars: for B/FS:B plants that developed flowers: T2 ID06 plants, end of experiment day 51. From the text:
A vector ID06, illustrated diagrammatically in FIG. 11, was constructed to provide constant expression of the barnase ribonuclease from Bacillus amyloliquefaciens in flower primordia to suppress flowering. The DNA construct (ID06) was transformed into wild type Arabidopsis by flower dipping method. T1 seeds were harvested and germinated in soil. Seven day old T1 seedlings were sprayed with LIBERTY® 280SL herbicide and 37 transgenic plants resistant to the herbicide survived. Transformants were analyzed by quantitative PCR (qPCR) to check transgene copy numbers. Thirteen percent of transgenic events contained only one copy of the transgene. All events were grown in growth chambers to evaluate phenotypes. The transgenic plants containing ID06 DNA construct should express the cytotoxic ribonuclease barnase in flower primordia which prevents formation of flowers. […] Instead of flowers, the Barnase/IP:Barstar plants have elongated small leaves that could have derived from sepals as shown in the inset picture of FIG. 12B.
The seven week old non-flowering plants were then sprayed with the ligand methoxyfenozide (2.5 μM) to turn on barstar expression and restore flowering. Ligand applications were performed every other day until all flowers had developed. […] T2 seeds were harvested for further evaluation of the transgenic lines on T2 plants.
Multiple T2 plants from six independent single copy transgenic ID06 events along with wt arabidopsis control plants were grown for three weeks. At three weeks plants from each line were divided in 3 treatment groups of 12 plants in each. The treatment was applied every other day for 30 days. The plants in group A were sprayed with plain water, in group B—with 50 nM solution of methoxyfenozide, and in group C—with 250 nM solution of methoxyfenozide. Before start of the treatment leaf tissue was collected from each plant for DNA extraction and genotype assessment by qPCR to identify homozygous, heterozygous and null segregant plants.
Plants were assessed as to whether they ever flowered (yes/no at the end of experiment, day 51) and the time to start flowering defined as the number of days after the first application of methoxyfenozide (days post-treatment: DPT) until the first flower bud appears. […] All the null segregants and wild-type plants flowered irrespectively of whether or not they were sprayed with methozyfenozide.

Assay [2] deals with FT gene under EcR-based gene switch. As to the kind of experiment: FT expression by qRT-PCR over the time-course of induction in ID14-50 plants. The assay is classed as in vivo, Arabidopsis. To be noted: homozygous ID14-50 T3 plants, all concentrations (10, 50, 250 nM), long and short day photoperiod. From the text:
FT expression was characterized at five time-points over the time-course of induction. One leaf per plant was collected at time-zero before ligand application corresponding to 17 and 24 days old plants in long and short day photoperiod, at one day after treatment started corresponding to 18 and 25 days old plants, four days after treatment started corresponding to 21 and 28 days old plants, seven days after ligand application started corresponding to 24 and 31 days old plants and, eleven days after treatment started corresponding to 28 and 35 days old plants for RNA extraction using a Qiagen RNA easy kit. First-strand cDNA was synthesized from the total RNA to be used as template for qRT-PCR analysis. qRT-PCR was set-up as previously described for T2 characterization. […] For most homozygous plants FT expression stayed relatively high and to a similar level from day one to day seven post-treatment before going down a little by day eleven post-treatment. For all time points, tissue was collected at the end of a period of induction, right before treatment was re-applied. […] FT expression in mock-treated plants as well as null and mutant treated plants stayed very low for the most part over the eleven days of treatment. In all genotypes, there is a large variation in FT expression among individual plants in the groups of siblings.

For assay [3], the system named is IP:FT (ID14) transgenic ft mutant Arabidopsis plants. As to the kind of experiment: Induction of flowering in IP:FT (ID14) transgenic ft mutant plants by ligand spray. The assay is classed as in vivo. The protocol: Briefly, the DNA constructs shown in FIG. 3 were transformed into homozygous ft mutant Arabidopsis by flower dipping method. T1 seeds were harvested and germinated in soil. 5 days old T1 seedlings were sprayed with LIBERTY® 280SL herbecide to kill off non-transgenic plants. Selected transgenic plants were analyzed by Bar-specific quantitative PCR (qPCR) to check transgene copy number. Events with low copy number of the transgenes were grown in growth chambers to evaluate phenotypes. […] Select T1 plants were grown to maturity and seeds were used to generate T2 and T3 progeny plants. Further detailed evaluation of the transgenic lines were done in T2 and T3 generation plants (as described in Example 7).
At day 11, the ID14 plants produced more flowers and pods while the ft mutant plant just started bolting.
T2 seeds were harvested from ID14 T1 plants and several experiments were designed to test if the EcR gene switch is tightly controlling the transgenic FT expression in the absence of the activator ligand, and if the switch can be easily turned on by applying the ligand to express enough FT to induce early flowering. T2 seeds from six independent ID14 lines (three with single copy of the transgene and three—with two copies) were planted along with wild-type Arabidopsis and ft mutant and grown under long day (16 hours) and short day (8 hours) photoperiods. Genotype of these T2 plants: homozygous, heterozygous, and null were assessed by TaqMan qPCR as described in Example 7 with the exception of utilizing only the Bar gene-specific primers and probes Bar-F1/Bar-R1/Bar-T1 and the same PDS endogenous control AtPDS-F1/AtPDS-R1/AtPDS-T1. The T2 plants segregated the transgene as a single gene following the Mendelian inheritance.
The homozygous plants and null segregants that served as isogenic negative controls were subject to treatment with water (as a control) and 2 concentrations of methoxyfenozide: low (250 nM) and high (2.5 μM). Plants were treated in groups of 2 pots with 5 plants in each at short and long day photoperiods. Treatments were administered every other day starting from day 19 (long day) and 25 (short day) after planting and continued for about three weeks until all plants flowered.
ID14 T2 plants were maintained to maturity and T3 seeds were collected for further characterization of a selected single-copy line ID14-50. The homozygous and null segregant T3 plants along with Arabidopsis ft mutant plants were grown for three weeks before starting ligand application. Plants were divided in four groups in which up to twelve individual plants per genotype were counted. Each group was treated with different concentrations of methoxyfenozide (10, 50 and, 250 nM) and one group was mock treated (water). Treatments were applied every other day from day 17 (long day) or 24 (short day) for a period of approximately three weeks or until all plants flowered.
The observation was done over a period of ninety days from the day of planting. In both short day and long day photoperiod, the homozygous T3 ID14-50 plants exposed to ligand started flowering as early as fourteen days before any null plants and ft mutants while the untreated plants flowered at a similar time with null and ft mutant plants as shown in FIG. 18.

With `COc1cccc(C(=O)NN(C(=O)c2cc(C)cc(C)c2)C(C)(C)C)c1C` [methoxyfenozide, 3-methoxy-2-methylbenzoic acid 2-(3,5-dimethylbenzoyl)-2-(1,1-dimethylethyl)hydrazide], the “flowering of Barnase/Barstar plants” value in assay [1] (2.5 μM ligand, FIG. 12 Panel C) is reported as “flowering”. Moreover, the “B/FS:B plants that developed flowers” value in assay [1] (50 nM sprayed every other day for 30 days) is recorded as 56 of 57; in assay [1] (250 nM sprayed every other day for 30 days), 50 of 52. The “delay in the time to start flowering between ligand-treated transgenic (ID06) and non-transgenic plants” value in assay [1] (T2 plants, 50 nM or 250 nM) fell in the range of 8 to 10 days. Moreover, in assay [1] (same effect at 50 nM and 250 nM solution), the “minimal effective concentration on flowering” value was “lower than 50 nM”. For the same compound, in assay [1] (seven week old non-flowering T1 plants, 2.5 μM sprayed every other day), the “time after ligand application until flower buds and flowers appear” value is recorded as “seven”. For the same compound, the FT expression entry in assay [2] is given as “increases as early as one day post-treatment”. Also, in assay [3] (T1 ID14 plants sprayed with ligand), the “flowering of non-flowering IP:FT plants after spray” value was “induced flowering and allowed for normal seed set”. Further, the “time until treated ID14 plants started bolting” value in assay [3] (T1 plants not flowering within 3 weeks, 2.5 μM every other day, ft mutant did not) is reported as not above 5 days. Also, the “time after the first application until ID14 plants started to flower” value in assay [3] (T2 ID14 plants, ft mutant and untreated ID14 plants did not flower) is reported as “Five”. Moreover, the “flowered earlier than ft mutant plants” value in assay [3] (homozygous T2 ID14-50 plants, 250 or 2500 nM) is recorded as 22 to 30 days. Also, the induction of flowering result in assay [3] (homozygous T2 ID14 plants, 250 nM and 2.5 μM every other day) was “clearly observed in most homozygous plants”. The “started flowering before any null plants and ft mutants” value in assay [3] (homozygous T3 ID14-50 plants, 10, 50, 250 nM, short day and long day photoperiod) is “fourteen”. Further, the “biomass production (number of rosette leaves as a proxy)” value in assay [3] (homozygous T3 ID14-50 plants, all ligand concentrations, both photoperiods) is listed as “strong decrease”.
